Data on one compound can be found in publication PMC9305623, “Next generation GLP-1/GIP/glucagon triple agonists normalize body weight in obese mice” (Molecular Metabolism, 2022).

For one data set, the target named is T1, mGcg Receptor (Mus musculus, UniProt Q61606).
T1 construct: expressed in transfected cells; host or cells: baby hamster kidney (BHK) cells, stably transfected, with CRE-firefly luciferase reporter
Description: Receptor activation: cAMP production by CRE-luciferase reporter in stably transfected BHK cells. Type of data set: cell-based. The following applies: relative to native ligand at mouse-derived receptor.

The next data set is described as follows: in vivo. On the set-up: species or system Göttingen minipigs. Particulars: female, Göttingen, minipig, iv, 2 nmol/kg. How it is done: Studies were conducted in accordance with the Protection of Animals Act, the Act on Experiments on Animals, and the Standard Operating Procedures for Experiments on Animals at Novo Nordisk A/S. The experiments were performed under the supervision and approval of the Danish Government Animal Experiments Inspectorate and the Novo Nordisk Ethical Review Counsel. Female Göttingen minipigs (Ellegaard Göttingen Minipigs A/S), 7–14 months old and weighing 16–35 kg, were housed individually and fed once daily with a restricted SDS minipig diet (Special Diets Services). At least one week before the study, two permanent central venous catheters were implanted in the caudal vena cava of each animal. The animals were fasted for approximately 18 h before dosing and 4 h after dosing but had ad libitum access to water during the whole period. Test compounds dissolved to a concentration of 20–40 nmol/mL in a vehicle (pH 7.4) containing 0.025% polysorbate-20, 10 mM sodium phosphate, and 250 mM glycerol were administered via an intravenous injection through one catheter at a dose of 2 nmol/kg. Blood samples were collected in 8 mM aqueous EDTA for up to 14 days post dosing, preferably through the other catheter, then centrifuged at 4 °C and ∼2000g for 10 min. Plasma was isolated and immediately frozen until RP-HPLC/MS analysis. Individual plasma concentration–time profiles were analysed by a non-compartmental model in Phoenix WinNonLin software (Pharsight Inc.), and the resulting terminal half-lives were determined at the harmonic mean.

For data set [1], the system named is DIO mice. As to the kind of experiment: Pharmacodynamics in DIO mice: body weight, food intake, body composition. Type of data set: in vivo, mouse (male C57BL/6J). How it is done: Studies were approved by and performed according to the guidelines of the Institutional Animal Care and Use Committee of the University of Cincinnati. Male C57BL/6J mice (Jackson Laboratories) were housed 4 per cage, exposed to a controlled 12 h/12 h light–dark cycle at room temperature (22 °C), and provided ab libitum access to water and a 58% fat, high-sugar diet (D12331, Research Diets) for 12 weeks. Mice exceeding 50 g of body weight were considered diet-induced obese (DIO) and included in studies, where they were randomized and evenly distributed to test groups (n = 8 per group) according to body weight. Test compounds dissolved at a concentration of 0.5–2 μM in a vehicle (pH 7.4) containing 0.05% polysorbate-80, 50 mM sodium phosphate, and 70 mM sodium chloride were administered subcutaneously once daily, unless otherwise noted, during the light cycle for each day of treatment at a volume of 2–5 μL per gram of body weight as necessary to achieve the desired dose. Body weight and food intake were measured immediately prior to dosing each day. The percent change in body was calculated individually for each mouse based on initial body weight prior to the first injection. For intraperitoneal (i.p.) glucose tolerance tests (IPGTT), animals were fasted for 6 h prior to the test but had access to water. Fasted blood glucose levels were measured, then mice were injected with an i.p. glucose load of 2 g/kg from a 200 mg/mL aqueous glucose solution. Tail blood glucose levels were measured 0, 15, 30, 60, 90, and 120 min following the glucose load using a handheld glucometer (Freestyle, Abbott).

For data set [2], the system named is DIO mice. Description: Plasma parameters in DIO mice after chronic treatment. It is filed as in vivo, mouse. Particulars: higher dose (2 nmol/kg), compared to vehicle.

The structures appear in SMILES notation. *1 amine or outer side, *2 acyl side, *3 side chain or, on linkers, in order; H or OH if unused. Where a SMILES comes first, the peptide text is derived from it. Side-chain parts run from the residue outwards. [ ]: non-standard residue; d: D form. The star is where a group is joined. C20 diacid = O=C(O)CCCCCCCCCCCCCCCCCCC(=O)*; γGlu = O=C(O)[C@H](CCC(=O)[*:2])N[*:1]; εLys = N[C@@H](CCCCN[*:1])C(=O)[*:2]; Aib = CC(C)(N)C(=O)O

T1 sequence (Q61606 27-485): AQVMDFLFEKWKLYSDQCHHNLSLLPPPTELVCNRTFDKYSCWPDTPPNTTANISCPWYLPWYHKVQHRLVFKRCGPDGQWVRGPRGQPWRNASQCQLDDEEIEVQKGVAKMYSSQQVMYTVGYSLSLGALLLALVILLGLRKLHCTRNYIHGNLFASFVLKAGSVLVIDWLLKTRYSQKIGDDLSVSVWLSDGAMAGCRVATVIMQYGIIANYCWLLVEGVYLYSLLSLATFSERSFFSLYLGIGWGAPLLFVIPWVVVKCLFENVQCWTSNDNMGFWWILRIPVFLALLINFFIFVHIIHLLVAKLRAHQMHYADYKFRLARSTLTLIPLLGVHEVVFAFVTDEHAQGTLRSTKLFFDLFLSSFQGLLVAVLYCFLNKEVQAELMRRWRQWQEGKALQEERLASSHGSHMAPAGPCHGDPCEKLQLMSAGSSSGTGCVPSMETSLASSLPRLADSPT
Description for mGcg Receptor: Cyclic AMP (cAMP) production was assessed as a proxy for receptor activation using stably transfected baby hamster kidney (BHK) cell lines expressing the DNA for one individual receptor (GLP-1R, GIPR, GcgR; human- or mouse-specific sequence) and the DNA for the firefly luciferase reporter gene linked to the cAMP response element (CRE). The cells were kept in continuous culture at 37 °C and 5% CO2 in Dulbecco's Modified Eagle Medium (DMEM) supplemented with 10% heat-inactivated fetal bovine serum (HI-FBS), 300 μg/mL hygromycin, and 500 μg/mL G418; for cell lines expressing GIPR, the G418 concentration was lowered to 400 μg/mL. Cells were plated in a 96-well poly-D-lysine-coated plate at 5,000 cells per well in growth media and incubated overnight at 37 °C with 5% CO2. After the overnight incubation, the media was removed, the plate was washed once in Dulbecco's phosphase-buffered saline (DPBS), and 50 μL of assay buffer (DMEM without phenol red, 10 mM HEPES, 1x Glutamax, 1% ovalbumin, 0.1% Pluronic F-68) was added to each well. […] The assay plate was covered to protect reagent from light, shaken at 250 rpm at room temperature for 30 min, and read in a microtiter plate reader. EC50 values were calculated using Prism software (GraphPad) with the nonlinear regression log(agonist) vs. response. A minimum of two replicates were measured for each sample.

For `CC[C@H](C)[C@H](NC(=O)[C@H](CO)NC(=O)[C@H](Cc1ccc(O)cc1)NC(=O)[C@H](CC(=O)O)NC(=O)[C@H](CO)NC(=O)[C@@H](NC(=O)[C@H](Cc1ccccc1)NC(=O)[C@@H](NC(=O)CNC(=O)[C@H](Cc1c[nH]cn1)NC(=O)C(C)(C)NC(=O)[C@@H](N)Cc1c[nH]cn1)[C@@H](C)O)[C@@H](C)O)C(=O)N[C@@H](Cc1ccc(O)cc1)C(=O)N[C@@H](CC(C)C)C(=O)N[C@@H](CCC(=O)O)C(=O)N[C@@H](CCCCNC(=O)[C@@H](N)CCCCNC(=O)[C@@H](N)CCCCNC(=O)CC[C@H](NC(=O)CCCCCCCCCCCCCCCCCCC(=O)O)C(=O)O)C(=O)N[C@@H](CCCCN)C(=O)N[C@@H](Cc1ccc(O)cc1)C(=O)N[C@@H](C)C(=O)NC(C)(C)C(=O)N[C@@H](CCC(=O)O)C(=O)N[C@@H](Cc1ccccc1)C(=O)N[C@H](C(=O)N[C@@H](CCC(N)=O)C(=O)N[C@@H](Cc1c[nH]c2ccccc12)C(=O)N[C@@H](CC(C)C)C(=O)N[C@@H](CC(C)C)C(=O)N[C@@H](CCC(=O)O)C(=O)NCC(=O)NCC(=O)N1CCC[C@H]1C(=O)N[C@@H](CO)C(=O)N[C@@H](CO)C(=O)NCC(=O)N[C@@H](C)C(=O)N1CCC[C@H]1C(=O)N1CCC[C@H]1C(=O)N1CCC[C@H]1C(=O)N[C@@H](CO)C(N)=O)C(C)C` [Compound 16] (H-H[Aib]HGTFTSDYSIYLEK([εLys-εLys-γGlu-C20 diacid])KYA[Aib]EFVQWLLEGGPSSGAPPPS-NH2), on mGcg Receptor, the “mGcg Receptor Relative Potency %” value is 78%. In addition, in the data set “in vivo”, the Vd (in general, a proportionality between amount in the body and measured concentration, not a real space) turned out to be 0.164 L/kg; the clearance (usually the volume of plasma or blood freed of the substance per unit of time) was 1.5 mL/h/kg; the half-life (in general, how long it takes for the measured level to halve) was 3.12 days. Further, the “body weight loss at high dose versus first generation triagonist and SAR441255” value with DIO mice [1] (2 nmol/kg) is “significantly superior body weight loss”. Moreover, in the data set on DIO mice [1] (3 nmol/kg daily and dose-escalated (1 to 30 nmol/kg) groups, s.c.), the “weight lowering efficacy versus tirzepatide” value is recorded as “significantly more weight lowering efficacy”. In addition, the Body weight reductions entry with DIO mice [1] (3 nmol/kg daily dose s.c., after 2 weeks of treatment) is reported as “greater than 30%”. For the same compound, the “origin of weight loss (fat mass vs lean mass)” value in the data set on DIO mice [1] (1 or 2 nmol/kg) was “predominantly derived from a reduction in fat mass, not lean mass”. The “animals achieving body weight normalization (average weight of lean litter mates, 22.5 g)” value with DIO mice [1] (n = 8 per group, up-titrated from 1 to 10 nmol/kg over 24 days, then 10 nmol/kg for up to 18 days) is recorded as “Five of the eight”. Further, the “body weight loss in animals achieving body weight normalization” value in the data set with DIO mice [1] (s.c. once daily, up-titrated from 1 to 10 nmol/kg over 24 days, then 10 nmol/kg for up to 18 days) is 55–60%. Further, the insulin levels result in the data set on DIO mice [2] is “decreased”.
